What was measured:
Type in all cases: functional
Saccharomyces cerevisiae [1] = experiment: (§1) MMV: Growth assays were conducted using the prototrophic S. cerevisiae strain JHY222. Each MMV compound (0.1 mM) was tested in rich media containing dextrose as a carbon source (Yeast Extract, Peptone, Dextrose; YPD). The growth rate in the presence of each MMV compound was calculated as follows: (i) the first 10 OD readings were averaged and subtracted from all OD readings of the corresponding curve to set the baseline of the growth curve to zero, and (ii) the area under the curve (AUC) was then calculated as the sum of all OD readings. […] A relative growth value was calculated as follows: AUC(DRUG) - AUC(DMSO)/AUC(DMSO); where AUC(DMSO) represents growth measured in a DMSO control well that was on the same microtiter plate of the drug-treated culture.
Saccharomyces cerevisiae [2] = experiment: as §1, with “minimal” for “rich”, “Nitrogen Base,” for “Extract, Peptone,”, “YNBD).” for “YPD).”
Saccharomyces cerevisiae [3] = experiment: as §1, with “minimal” for “rich”, “ethanol and glycerol” for “dextrose”, “as” for “as a”, “sources” for “source”, “Nitrogen Base, Ethanol, Glycerol; YNBEG).” for “Extract, Peptone, Dextrose; YPD).”

Structure (SMILES)	Relative Growth (Saccharomyces cerevisiae [1])	Relative Growth (Saccharomyces cerevisiae [2])	Relative Growth (Saccharomyces cerevisiae [3])
CN(C)CCCNc1c2ccccc2nc2ccccc12	0.0036	-0.0065	0.0887
Cc1cc(C)cc(Nc2cc(C)nc3nc(C(F)(F)F)nn23)c1	-0.0343	0.0866	-0.0322
COc1ccc(-c2cc3c(SCC(=O)Nc4cc(C(F)(F)F)ccc4Cl)nccn3n2)cc1	-0.0822	0.0829	-0.1809
Cc1ccc(-c2cc3c(SCC(=O)Nc4cc(C(F)(F)F)ccc4Cl)nccn3n2)cc1	0.0079	0.117	-0.0739
CCCCCC(=O)N1c2ccccc2N=C2CC(c3ccc(OC)c(OC)c3)CC(O)=C2C1c1ccc(C(F)(F)F)cc1 (configuration not stated)	-0.0291	0.1507	0.0121
CCN1CCN(Cc2ccc(NC(=O)c3cc4ccc5cccnc5c4[nH]3)cc2)CC1	0.0075	0.0158	-0.0693
CCc1c(C)c(=N)c2ccccc2n1C.I	-0.0391	0.0986	0.0462
COc1cccc(NC(=O)[C@H](C(C)C)n2c(=O)[nH]c3ccccc3c2=O)c1	0.0157	-0.0427	0.0015
Cc1cc(Nc2ccc(C)c(Cl)c2)n2nc(C(F)(F)F)nc2n1	-0.0311	0.1169	-0.6431
COc1cccc(C=Cc2nc(=O)c3ccccc3o2)c1OC	-0.0201	0.0576	-0.4404
CCCN(CCC)CC(O)COc1ccccc1C(=O)Nc1ccccc1 (configuration not stated)	-0.0395	0.0118	0.0655
COc1ccc(C(=O)Nc2nonc2-c2ccc(OC)c(OC)c2)cc1Cl	-0.0037	0.1144	0.0586
COc1ccc(C=C2SC(=N)N(c3ccccc3OC)C2=O)cc1	-0.083	-0.0085	-0.0639
CCOC(=O)c1c(C)n(-c2ccc(Cl)cc2)c2ccc(OC(=O)C=Cc3ccccc3)cc12	-0.0067	0.0402	0.0277
COc1ccc2c(c1)OC(O)(C(F)(F)C(F)(F)F)CC2=O (configuration not stated)	0.0151	0.1423	-0.103
C=CC12CCN(CC1)C(C(O)c1ccnc3ccc(OC)cc13)C2.Cl (configuration not stated)	-0.0044	0.1593	0.1178
Cc1ccc(-c2cc3nc4c(c(O)n3n2)CCCC4)cc1	-0.3245	-1.0172	-1.0646
Cc1cc(C)c2c(c1)OCN(Cc1ccccc1Cl)C2	-0.0627	-0.0636	-0.3214
COc1ccccc1CNC(=O)CCn1c(=O)[nH]c2ccsc2c1=O	-0.0638	0.2472	-0.0445
COc1ccc(Br)cc1C1Nc2ccc3ccccc3c2C2=C1C(=O)CC(c1ccccc1)C2 (configuration not stated)	-0.0736	0.0368	-0.105
CC1CCN(Cc2ccc(NC(=O)c3cc4ccc5cccnc5c4[nH]3)cc2)CC1	-0.0895	0.121	-0.318
CCOC(=O)c1ccc2nc(-c3ccccc3)cc(O)c2c1	-0.0952	0.1214	0.0616
CCCCCCOC(=O)C1=C(C)NC(=O)NC1c1ccccc1F (configuration not stated)	-0.0098	0.2134	-0.2346
COc1ccc(NC(=O)C2c3ccccc3C(=O)N(CC(C)C)C2c2cccs2)cc1 (configuration not stated)	-0.1052	0.0442	-0.1656

From ChEMBL document CHEMBL3301546, “MMV Malaria Box yeast growth screening”
